According to patent US11649218B2, “C-Abl tyrosine kinase inhibitory compound embodiments and methods of making and using the same” (The USA, as represented by the Secretary, Dept. of Health …, priority 2018, dated 2023):

What follows are compounds tested on Leukemia K562 cell (assay: Leukemia K562 cell proliferation/viability assay (CellTiterGlo, 48 hours)). Conditions: K562 cells.
Format: cell-based
Parameters: unit not given here
Description: C-Abl is encoded by the ABL1 gene (NCBI Gene ID NO. 25). […] Assays for determining if a small molecule inhibits c-Abl activity are known. Non-limiting examples include cell proliferation assays using cancer cells that are BCR-Abl positive and depend on BCR-Abl for growth, such as the leukemia cell line K562. […] In some embodiments described herein, compounds are tested for ability to reduce K562 cell proliferation in an HTS adapted assay which measures cell viability using the reagent CellTiterGlo after 48 hours treatment.
CC(C)(O)c1cccc(-c2ccc3c(c2)C(=O)Nc2cc(OC(F)(F)F)ccc2O3)c1 [NCGC00411876, 2-(3-(2-Hydroxypropan-2-yl)phenyl)-8-(trifluoromethoxy)dibenzo[b,f][1,4]oxazepin-11(10H)-one] gave an Efficacy of −86.3.
With O=C1Nc2cc(OC(F)(F)F)ccc2Oc2ccc(-c3ccncc3)cc21 [NCGC00371309, 2-(Pyridin-4-yl)-8-(trifluoromethoxyl)dibenzo[b,f][1,4]oxazepin-11(10H)-one] the Efficacy was −77.6.
With CC(C)(O)Cn1cc(-c2ccc3c(c2)C(=O)Nc2cc(OC(F)(F)F)ccc2O3)cn1 [NCGC00387294, 2-(1-(2-Hydroxy-2-methylpropyl)-1H-pyrazol-4-yl)-8-(trifluoromethoxy)dibenzo[b,f][1,4]oxazepin-11(10H)-one] the Efficacy was −82.3.
O=C1Nc2cc(OC(F)(F)F)ccc2Oc2ccc(-c3ccc4[nH]ncc4c3)cc21 [NCGC00373058, 2-(1H-Indazol-5-yl)-8-(trifluoromethoxy)dibenzo[b,f][1,4]oxazepin-11(10H)-one] was tested, and the Efficacy was −74.3.
Work on O=C(NCCO)c1cccc(-c2ccc3c(c2)C(=O)Nc2cc(OC(F)(F)F)ccc2O3)c1 [NCGC00356688, N-(2-Hydroxyethyl)-3-(11-oxo-8-(trifluoromethoxy)-10H-dihydrodibenzo[b,f][1,4]oxazepin-2-yl)benzamide] yielded an Efficacy of −89.8.
Work on N#CCCn1cc(-c2ccc3c(c2)C(=O)Nc2cc(OC(F)(F)F)ccc2O3)cn1 [NCGC00387293, 3-(4-(11-Oxo-8-(trifluoromethoxy)-10,11-dihydrodibenzo[b,f][1,4]oxazepin-2-yl)-1H-pyrazol-1-yl)propanenitrile] yielded an Efficacy of −84.4.
Compound O=C1Nc2cc(OC(F)(F)F)ccc2Oc2ccc(-c3ccc(CN4CCOCC4)s3)cc21 [NCGC00388536, 2-(5-(Morpholinomethyl)thiophen-2-yl)-8-(trifluoromethoxy)dibenzo[b,f][1,4]oxazepin-11(10H)-one] has an Efficacy of −83.1.
O=C(NCCO)c1cccc(-c2ccc3c(c2)C(=O)Nc2cc(OC(F)(F)F)ccc2N3)c1 [NCGC00355556, N-(2-hydroxyethyl)-3-(11-oxo-8-(trifluoromethoxy)-10,11-dihydro-5H-dibenzo[b,e][1,4]diazepin-2-yl)benzamide] was tested, and the Efficacy was −90.9.
CS(=O)(=O)Nc1cccc(-c2ccc3c(c2)Oc2ccc(OC(F)(F)F)cc2C(=O)N3)c1 [NCGC00384295, N-(3-(11-Oxo-2-(trifluoromethoxy)-10,11-dihydrodibenzo[b,f][1,4]oxazepin-7-yl)phenyl)methanesulfonamide] gave an Efficacy of −80.6.
In the case of CS(=O)(=O)Nc1cccc(-c2ccc3c(c2)C(N)=Nc2cc(OC(F)(F)F)ccc2O3)c1 [NCGC00373124, N-(3-(11-Amino-8-(trifluoromethoxy)dibenzo[b,f][1,4]oxazepin-2-yl)phenyl)methanesulfonamide], the Efficacy is reported as −87.5.
With O=C1Nc2cc(OC(F)(F)F)ccc2Oc2ccc(-c3cccnc3)cc21 [NCGC00371308, 2-(Pyridin-3-yl)-8-(trifluoromethoxy)dibenzo[b,f][1,4]oxazepin-11(10H)-one] the Efficacy was −7.0.
Work on NC(=O)Cn1cc(-c2ccc3c(c2)C(=O)Nc2cc(OC(F)(F)F)ccc2O3)cn1 [NCGC00387404, 2-(4-(11-Oxo-8-(trifluoromethoxy)-10,11-dihydrodibenzo[b,f][1,4]oxazepin-2-yl)-11-pyrazol-1-yl)acetamide] yielded an Efficacy of −8.8.
With CS(=O)(=O)Nc1cccc(-c2ccc3c(c2)Oc2cc(OC(F)(F)F)ccc2NC3=O)c1 [NCGC00384296, N-(3-(11-oxo-7-(trifluoromethoxy)-10,11-dihydrodibenzo[b,f][1,4]oxazepin-3-yl)phenyl)methanesulfonamide] the Efficacy was −73.3.
Compound CS(=O)(=O)Nc1cccc(-c2ccc3c(c2)C(=O)Nc2cc(OC(F)(F)F)ccc2O3)c1 [NCGC00356665, N-(3-(11-Oxo-8-(trifluoromethoxy)-10,11-dihydrodibenzo[b,f][1,4]oxazepin-2-yl)phenyl)methanesulfonamide] has an Efficacy of −83.8.
Work on O=C1Nc2cc(C(F)(F)F)ccc2Oc2ccc(-c3ccnc(N4CCOCC4)c3)cc21 [NCGC00481506, 2-(2-Morpholinopyridin-4-yl)-8-(trifluoromethyl)dibenzo[b,f][1,4]oxazepin-11(10H)-one] yielded an Efficacy of −87.5.
O=C1Nc2cc(OC(F)(F)F)ccc2Oc2ccc(B(O)O)cc21 [NCGC00387437, (11-Oxo-8-(trifluoromethoxy)-10,11-dihydrodibenzo[b,f][1,4]oxazepin-2-yl)boronic acid] gave an Efficacy of −82.6.
O=C1Nc2cc(OC(F)(F)F)ccc2Oc2ccc(-c3cccc(-c4ccn[nH]4)c3)cc21 [NCGC00411874, 2-(3-(1H-Pyrazol-5-yl)phenyl)-8-(trifluoromethoxy)dibenzo[b,f][1,4]oxazepin-11(10H)-one] was tested, and the Efficacy was −84.3.
Work on O=C1Nc2cc(OC(F)(F)F)ccc2Oc2ccc(-c3cnc4ccnn4c3)cc21 [NCGC00409812, 2-(pyrazolo[1,5-a]pyrimidin-6-yl)-8-(trifluoromethoxy)dibenzo[b,f][1,4]oxazepin-11(10H)-one] yielded an Efficacy of −69.0.
CC(=O)NCc1ccc(-c2ccc3c(c2)C(=O)Nc2cc(OC(F)(F)F)ccc2O3)s1 [NCGC00388557, N-((5-(11-Oxo-8-(trifluoromethoxy)-10,11-dihydrodibenzo[b,f][1,4]oxazepin-2-yl)thiophen-2-yl)methyl)acetamide] was tested, and the Efficacy was −81.9.
NC(=O)c1cccc(-c2ccc3c(c2)C(=O)Nc2cc(OC(F)(F)F)ccc2O3)c1 [NCGC00356842, 3-(11-Oxo-8-(trifluoromethoxy)-10,11-dihydrodibenzo[b,f][1,4]oxazepin-2-yl)benzamide] showed an Efficacy of −67.0.
O=C1Nc2cc(OC(F)(F)F)ccc2Oc2ccc(CCB(O)O)cc21 [NCGC00390141, (2-(11-Oxo-8-(trifluoromethoxy)-10,11-dihydrodibenzo[b,f][1,4]oxazepin-2-yl)ethyl)boronic acid] gave an Efficacy of −45.8.
CN1C(=O)c2cc(-c3cccc(N(C)S(C)(=O)=O)c3)ccc2Oc2ccc(OC(F)(F)F)cc21 [NCGC00384286, N-Methyl-N-(3-(10-methyl-11-oxo-8-(trifluoromethoxy)-10,11-dihydrodibenzo[b,f][1,4]oxazepin-2-yl)phenyl)methanesulfonamide] gave an Efficacy of −54.6.
Work on O=C1Nc2cc(OC(F)(F)F)ccc2Oc2ccc(-c3cnn(CCN4CCOCC4)c3)cc21 [NCGC00387296, 2-(1-(2-Morpholinoethyl)-1H-pyrazol-4-yl)-8-(trifluoromethoxy)dibenzo[b,f][1,4]oxazepin-11(10H)-one] yielded an Efficacy of −81.7.
In the case of O=C(NCCN1CCOCC1)c1cccc(-c2ccc3c(c2)C(=O)Nc2cc(OC(F)(F)F)ccc2N3)c1 [NCGC00355557, N-(2-Morpholinoethyl)-3-(11-oxo-8-(trifluoromethoxy)-10,11-dihydro-5H-dibenzo[b,e][1,4]diazepin-2-yl)benzamide], the Efficacy is reported as −91.1.
With CN(C)S(=O)(=O)c1cccc(-c2ccc3c(c2)C(=O)Nc2cc(OC(F)(F)F)ccc2O3)c1 [NCGC00373057, N,N-Dimethyl-3-(11-oxo-8-(trifluoromethoxy)-10. I1-dihydrodibenzo[b,f][1,4]oxazepin-2-yl)benzenesulfonamide] the Efficacy was −85.1.
For O=C1Nc2cc(OC(F)(F)F)ccc2S(=O)(=O)c2ccc(-c3ccnc(N4CCOCC4)c3)cc21 [NCGC00483140, 2-(2-Morpholinopyridin-4-yl)-8-(trifluoromethoxy)dibenzo[b,f][1,4]thiazepin-11(10H)-one 5,5-dioxide], the Efficacy was −87.2.
Compound O=C1Nc2cc(OC(F)(F)F)ccc2Oc2ccc(-c3cncnc3)cc21 [NCGC00371310, 2-(Pyrimidin-5-yl)-8-(trifluoromethoxy)dibenzo[b,f][1,4]oxazepin-11(10H)-one] has an Efficacy of −15.0.
N#Cc1ccc2c(c1)NC(=O)c1cc(-c3ccnc(N4CCOCC4)c3)ccc1O2 [NCGC00481503, 2-(2-Morpholinopyridin-4-yl)-11-oxo-10,11-dihydrodibenzo[b,f][1,4]oxazepine-8-carbonitrile] gave an Efficacy of −80.5.
With CS(=O)(=O)Nc1cccc(-c2ccc3c(c2)Oc2ccc(OC(F)(F)F)cc2NC3=O)c1 [NCGC00384235, N-(3-(11-Oxo-8-(trifluoromethoxy)-10,11-dihydrodibenzo[b,f][1,4]oxazepin-3-yl)phenyl)methanesulfonamide] the Efficacy was −99.8.
CS(=O)(=O)Nc1ccc(-c2ccc3c(c2)C(=O)Nc2cc(OC(F)(F)F)ccc2N3)cc1 [NCGC00355552, N-(4-(11-oxo-8-(trifluoromethoxy)-10,11-dihydro-5H-dibenzo[b,e][1,4]diazepin-2-yl)phenyl)methanesulfonamide] gave an Efficacy of −86.3.
NCCNC(=O)c1cccc(-c2ccc3c(c2)C(=O)Nc2cc(OC(F)(F)F)ccc2N3)c1 [NCGC00355568, N-(2-Aminoethyl)-3-(11-oxo-8-(trifluoromethoxy)-10,11-dihydro-5H-dibenzo[b,e][1,4]diazepin-2-yl)benzamide] was tested, and the Efficacy was −81.4.
O=C1Nc2cc(OC(F)(F)F)ccc2Oc2ccc(-c3cccc(CO)c3)cc21 [NCGC00415061, 2-(3-(Hydroxymethyl)phenyl)-8-(trifluoromethoxy)dibenzo[b,f][1,4]oxazepin-11(10H)-one] showed an Efficacy of −71.4.
Compound CN1CCN(C(=O)c2cccc(-c3ccc4c(c3)C(=O)Nc3cc(OC(F)(F)F)ccc3O4)c2)CC1 [NCGC00356690, 2-(3-(4-Methylpiperazine-1-carbonyl)phenyl)-8-(trifluoromethoxy)dibenzo[b,f][1,4]oxazepin-11(10H)-one] has an Efficacy of −121.9.
In the case of O=C1Nc2cc(OC(F)(F)F)ccc2[S+]([O-])c2ccc(-c3ccnc(N4CCOCC4)c3)cc21 (centres unmarked) [NCGC00482446, 2-(2-Morpholinopyridin-4-yl)-8-(trifluoromethoxy)dibenzo[b,f][1,4]thiazepin-11(10H)-one 5-oxide], the Efficacy is reported as −83.3.
O=C1Nc2cc(OC(F)(F)F)ccc2Nc2ccc(-c3cccc(C(=O)N4CCOCC4)c3)cc21 [NCGC00355558, 2-(3-(Morpholine-4-carbonyl)phenyl)-8-(trifluoromethoxy)-5,10-dihydro-11H-dibenzo[b,e][1,4]diazepin-11-one] was tested, and the Efficacy was −89.5.
